According to publication PMC7756392, “Syntheses of Thailandepsin B Pseudo‐Natural Products: Access to New Highly Potent HDAC Inhibitors via Late‐Stage Modification” (Chemistry (Weinheim an Der Bergstrasse, Germany), 2020):

Experiments:
HL60 cells = experiment: MTS cell viability assay, HL60; assay type: cell-based; details: for GI50 (in words): 72 h
Protocol: hHDAC1/6: Activity assays were performed in OptiPlateTM-96 F black microplates (PerkinElmer). Commercial available enzymes (human recombinant HDAC1; BPS Bioscience, catalog no. 50051 and human recombinant HDAC6; BPS Bioscience, catalog no. 50006) were used. Total assay volume of 60 µL contains 42 µl of assay buffer (50 mM Tris -HCl, pH 8.0, 137 mM NaCl, 2.7 mM KCl, 1 mM MgCl2, 0.2 mM TCEP and 1 mg/mL bovine serum albumin), 10 µL of enzyme solution in assay buffer, 3 µL of increasing concentrations of inhibitors in DMSO and 5 μL of the fluorogenic substrate ZMAL (Z -(Ac)Lys-AMC) (126 μM). After incubation (90 min, 37 °C) 60 µL of stop solution, containing 5 μL Trichostatin A (TSA) (33 μM) and 10 μL trypsin (6 mg/mL) in trypsin buffer (Tris-HCl 50 mM, pH 8.0, NaCl 100 mM), were added. After incubation (30 min at 37 °C) fluorescence signal (λex = 390 nm, λem = 460 nm) was measured on a BMG LABTECH POLARstar OPTIMA plate reader (BMG Labtechnologies, Germany).10 hHDAC8: Enzyme was obtained from cooperation partners (Romier).11 Assay was performed as described before. […] After incubation (30 min at 37 °C) fluorescence signal was determined as mentioned for HDAC1/6.12 […]
Cell proliferation was determined by using the Celltiter 96 AQueous nonradioactive Proliferation Assay (Promega). After 72h of incubation time with inhibitor or DMSO, 20 µL of a mixture (20:1) consisting of MTS (3-(4,5-dimethylthiazol-2-yl)-5-(3-carboxymethoxyphenyl)-2-(4-sulfophenyl-2H-tetrazolium) and PMS (phenazine methosulfate) were added to each well. Absorption was measured after another 2-4 h with a BMG LABTECH POLARstar OPTIMA plate reader (BMG Labtechnologies, Germany).
Experiments were performed in triplicates and GI50 values were calculated using the software Origin 2019. […]
CO2. […] After another 20 min of incubation, the fluorescence signal (λex = 390 nm, λem = 460 nm) was measured on a BMG LABTECH POLARstar OPTIMA plate reader (BMG Labtechnologies, Germany). […]

HDAC in HeLa cells = experiment: Cellular HDAC activity assay, HeLa; assay type: cell-based; details: for IC50: read-out: cellular HDAC inhibition IC50
Protocol: Cellular trypsin-based activity assay:13 1 x 10^4 Hela cells (50 µL) were seeded in sterile dark 96-well microtiter plates (Perkin Elmer) and incubated overnight at 37 °C and 5% CO2 atmosphere. The next day, the medium was aspirated and the cells were incubated with different inhibitor concentrations or DMSO, diluted in 50 µL m edium without supplements and phenol red. After 2 h incubation time, 50 µL of the HDAC substrate MAL (Boc -Lys(Ac)-AMC) were added to a final concentration of 150 µM and the plate was incubated for 2 h at 37°C and 5%
CO2. The reaction was stopped by adding 50 µL of stop solution (50 mM Tris, 137 mM NaCl, 1 mM MgCl2, 2.7 mM KCl, 1 µM TSA, 0.1% Igepal, 1 mg/ml Trypsin). After another 20 min of incubation, the fluorescence signal (λex = 390 nm, λem = 460 nm) was measured on a BMG LABTECH POLARstar OPTIMA plate reader (BMG Labtechnologies, Germany). […]

Compound	growth inhibition at 5 μM (in words) (HL60 cells; 5 μM)	HDAC inhibition in cells at 5 μM (in words) (HDAC in HeLa cells; 5 μM)	GI50 (in words) (HL60 cells)	IC50 (HDAC in HeLa cells) [µM]
CCCC[C@H]1NC(=O)C[C@@H](/C=C/CCC(=O)NO)OC(=O)C[C@H](O)[C@@H]([C@@H](C)CC)NC(=O)[C@@H](C)NC1=O [compound 8]	did not inhibit growth	no HDAC inhibition		
CCCC[C@H]1NC(=O)C[C@@H](/C=C/CCSC(C)=O)OC(=O)C[C@H](O[Si](C)(C)C(C)(C)C)[C@@H]([C@@H](C)CC)NC(=O)[C@@H](C)NC1=O [compound 32]			micromolar	58.6 ± 1.3
CCCC[C@H]1NC(=O)C[C@@H](/C=C/CCSC(C)=O)OC(=O)C[C@H](O)[C@@H]([C@@H](C)CC)NC(=O)[C@@H](C)NC1=O [compound 33]			nanomolar	0.034 ± 0.0022
